8 molecules from patent US10004701B2, “Methods and compositions for treating infection” (UNIVERSITY OF ROCHESTER, priority 2012, dated 2018) can be followed below.

Counter-ions that a name gives are not always drawn. Like-named read-outs stand apart in the source and are kept apart here.

What all share (test): AK assay 384-well format, Prestwick library screening
Assay [1] relates to K. pneumoniae. The format is cell-based, Klebsiella pneumoniae. Particulars: 50 μM final drug concentration; for fold induction at 50 µM: Klebsiella pneumoniae, 3 h.
The test system of assay [2] is E. faecium. Type of assay: cell-based, Enterococcus faecium. To be noted: 50 μM final drug concentration; for fold induction at 50 µM: Enterococcus faecium, 3 h.
Assay [3] relates to P. aeruginosa. The format is cell-based, Pseudomonas aeruginosa. Particulars: 50 μM final drug concentration; for fold induction at 50 µM: Pseudomonas aeruginosa, 3 h.
Assay [4] concerns E. coli. The format is cell-based, Escherichia coli. Particulars: 50 μM final drug concentration; for fold induction at 50 µM: Escherichia coli, 3 h.
Assay [5] concerns A. baumannii strain 98-37-09. The format is cell-based, Acinetobacter baumannii. To be noted: 50 μM final drug concentration; for fold induction at 50 µM: Acinetobacter baumannii, 983709, 3 h.
The subject of assay [6] is E. cloacae. Type of assay: cell-based, Enterobacter cloacae. To be noted: 50 μM final drug concentration; for fold induction at 50 µM: Enterobacter cloacae, 3 h.
In assay [7] the test system is S. aureus strain USA300-0114. Type of assay: cell-based, Staphylococcus aureus. To be noted: 50 μM final drug concentration; for fold induction at 50 µM: Staphylococcus aureus, USA300, 3 h.
Where [8] appears, read: cutoff for positive-scoring molecules 3-fold increase, read-out: AK-based Prestwick Library Screening Results, K. pneumoniae (fold increase in extracellular AK activity).
Where [9] appears, read: cutoff for positive-scoring molecules 3-fold increase, read-out: AK-based Prestwick Library Screening Results, E. faecium (fold increase in extracellular AK activity).
Where [10] appears, read: cutoff for positive-scoring molecules 3-fold increase, read-out: AK-based Prestwick Library Screening Results, P. aeruginosa (fold increase in extracellular AK activity).
The mark [11] stands for this setting: cutoff for positive-scoring molecules 3-fold increase, read-out: AK-based Prestwick Library Screening Results, E. coli (fold increase in extracellular AK activity).
[12] abbreviates: cutoff for positive-scoring molecules 3-fold increase, read-out: AK-based Prestwick Library Screening Results, A. baumannii (fold increase in extracellular AK activity).
Setting [13] is: cutoff for positive-scoring molecules 3-fold increase, read-out: AK-based Prestwick Library Screening Results, E. cloacae (fold increase in extracellular AK activity).
Where [14] appears, read: cutoff for positive-scoring molecules 3-fold increase, read-out: AK-based Prestwick Library Screening Results, S. aureus (fold increase in extracellular AK activity).

Consider `NS(=O)(=O)c1cc2c(cc1C(F)(F)F)NC(Cc1ccccc1)NS2(=O)=O` (centres unmarked) [Bendroflumethiazide], for which the fold induction at 50 µM in assay [1] (setting [8]) amounted to 1.1; in assay [2] (setting [9]), 1.2; in assay [3] (setting [10]) it was 1.1; in assay [4] (setting [11]) it was 1.3; in assay [5] (setting [12]), 1.3; in assay [6] (setting [13]), 1.5. Further, in assay [7] (setting [14]), the fold induction at 50 µM stood at 1.3.
`CN(C)CCCN1c2ccccc2Sc2ccc(Cl)cc21` [Chlorpromazine hydrochloride]: the fold induction at 50 µM in assay [1] (planktonic K. pneumoniae, 384-well, cutoff for positive-scoring molecules 3-fold increase, read-out: AK-based Prestwick Library Screening Results: K. pneumoniae (increase in extracellular AK activity)) is 1.1; in assay [2] (planktonic E. faecium, 384-well, cutoff for positive-scoring molecules 3-fold increase, read-out: AK-based Prestwick Library Screening Results: E. faecium (increase in extracellular AK activity)) it was 1; in assay [3] (planktonic P. aeruginosa, 384-well, cutoff for positive-scoring molecules 3-fold increase, read-out: AK-based Prestwick Library Screening Results: P. aeruginosa (increase in extracellular AK activity)), 1.1; in assay [4] (planktonic E. coli, 384-well, cutoff for positive-scoring molecules 3-fold increase, read-out: AK-based Prestwick Library Screening Results: E. coli (increase in extracellular AK activity)) it was 1.4; in assay [5] (planktonic A. baumannii, 384-well, cutoff for positive-scoring molecules 3-fold increase, read-out: AK-based Prestwick Library Screening Results: A. baumannii (increase in extracellular AK activity)), 1.5; in assay [6] (planktonic E. cloacae, 384-well, cutoff for positive-scoring molecules 3-fold increase, read-out: AK-based Prestwick Library Screening Results: E. cloacae (increase in extracellular AK activity)), 1.4. In addition, the fold induction at 50 µM in assay [7] (planktonic S. aureus, 384-well, cutoff for positive-scoring molecules 3-fold increase, read-out: AK-based Prestwick Library Screening Results: S. aureus (increase in extracellular AK activity)) is 1.4.
`CCCCOc1ccc(CC(=O)NO)cc1` [Bufexamac]: the fold induction at 50 µM is 0.5 in assay [1] (384-well format, cutoff for positive-scoring molecules 3-fold increase, read-out: AK-based Prestwick Library Screening Results, K. pneumoniae (increase in extracellular AK activity)); 0.9 in assay [2] (384-well format, cutoff for positive-scoring molecules 3-fold increase, read-out: AK-based Prestwick Library Screening Results, E. faecium (increase in extracellular AK activity)); 0.5 in assay [3] (384-well format, cutoff for positive-scoring molecules 3-fold increase, read-out: AK-based Prestwick Library Screening Results, P. aeruginosa (increase in extracellular AK activity)); 0.5 in assay [4] (384-well format, cutoff for positive-scoring molecules 3-fold increase, read-out: AK-based Prestwick Library Screening Results, E. coli (increase in extracellular AK activity)); 0.5 in assay [5] (384-well format, cutoff for positive-scoring molecules 3-fold increase, read-out: AK-based Prestwick Library Screening Results, A. baumannii (increase in extracellular AK activity)); 0.6 in assay [6] (384-well format, cutoff for positive-scoring molecules 3-fold increase, read-out: AK-based Prestwick Library Screening Results, E. cloacae (increase in extracellular AK activity)). Further, the fold induction at 50 µM in assay [7] (384-well format, cutoff for positive-scoring molecules 3-fold increase, read-out: AK-based Prestwick Library Screening Results, S. aureus (increase in extracellular AK activity)) was 0.4.
In the case of `CCC(=O)O[C@H]1CC[C@H]2[C@@H]3CCC4=CC(=O)CC[C@]4(C)[C@H]3CC[C@]12C` [Testosterone propionate], the fold induction at 50 µM in assay [1] (planktonic K. pneumoniae, 384-well, […], read-out: AK-based Prestwick Library Screening Results: K. pneumoniae (increase in extracellular AK activity)) is 0.4; in assay [2] (planktonic E. faecium, 384-well, […], read-out: AK-based Prestwick Library Screening Results: E. faecium (increase in extracellular AK activity)) it was 0.9; in assay [3] (planktonic P. aeruginosa, 384-well, […], read-out: AK-based Prestwick Library Screening Results: P. aeruginosa (increase in extracellular AK activity)), 0.4; in assay [4] (planktonic E. coli, 384-well, […], read-out: AK-based Prestwick Library Screening Results: E. coli (increase in extracellular AK activity)) it was 0.5; in assay [5] (planktonic A. baumannii, 384-well, […], read-out: AK-based Prestwick Library Screening Results: A. baumannii (increase in extracellular AK activity)) it was 0.5; in assay [6] (planktonic E. cloacae, 384-well, […], read-out: AK-based Prestwick Library Screening Results: E. cloacae (increase in extracellular AK activity)) it was 0.3. Also, the fold induction at 50 µM in assay [7] (planktonic S. aureus, 384-well, […], read-out: AK-based Prestwick Library Screening Results: S. aureus (increase in extracellular AK activity)) worked out at 0.3.
In the case of `N=C(N)c1ccc(OCCCCCOc2ccc(C(=N)N)cc2)cc1` [Pentamidine isethionate], the fold induction at 50 µM in assay [1] (planktonic, cutoff for positive 3-fold increase, read-out: AK-based Prestwick Library Screening Results, K. pneumoniae (fold increase in extracellular AK activity)) turned out to be 1.2; in assay [2] (planktonic, cutoff for positive 3-fold increase, read-out: AK-based Prestwick Library Screening Results, E. faecium (fold increase in extracellular AK activity)), 1.4; in assay [3] (planktonic, cutoff for positive 3-fold increase, read-out: AK-based Prestwick Library Screening Results, P. aeruginosa (fold increase in extracellular AK activity)), 1.2; in assay [4] (planktonic, cutoff for positive 3-fold increase, read-out: AK-based Prestwick Library Screening Results, E. coli (fold increase in extracellular AK activity)), 1.4; in assay [5] (planktonic, cutoff for positive 3-fold increase, read-out: AK-based Prestwick Library Screening Results, A. baumannii (fold increase in extracellular AK activity)) it was 1.2; in assay [6] (planktonic, cutoff for positive 3-fold increase, read-out: AK-based Prestwick Library Screening Results, E. cloacae (fold increase in extracellular AK activity)) it was 1.4. Also, the fold induction at 50 µM in assay [7] (planktonic, cutoff for positive 3-fold increase, read-out: AK-based Prestwick Library Screening Results, S. aureus (fold increase in extracellular AK activity)) was 1.9.
With `CCOC(=O)[C@H](CCc1ccccc1)N[C@@H](C)C(=O)N1Cc2ccccc2C[C@H]1C(=O)O` [Quinapril HCl], the fold induction at 50 µM in assay [1] (setting [8]) turned out to be 1; in assay [2] (setting [9]), 1.1; in assay [3] (setting [10]) it was 1.2; in assay [4] (setting [11]), 1.2; in assay [5] (setting [12]), 1.2; in assay [6] (setting [13]), 1.6. Moreover, the fold induction at 50 µM in assay [7] (setting [14]) is 1.2.
On to `CC(C)NCC(O)c1ccc(O)c(O)c1.Cl` (single isomer, unassigned; (-)) [(−)-Isoproterenol hydrochloride], for which the “AK-based Prestwick library screening result, K. pneumoniae (fold increase in extracellular AK activity)” value in assay [1] (planktonic K. pneumoniae, positive cutoff 3-fold increase) was found to be 1.2. The “AK-based Prestwick library screening result, E. faecium (fold increase in extracellular AK activity)” value in assay [2] (planktonic E. faecium, positive cutoff 3-fold increase) was determined as 0.9. In addition, the “AK-based Prestwick library screening result, P. aeruginosa (fold increase in extracellular AK activity)” value in assay [3] (planktonic P. aeruginosa, positive cutoff 3-fold increase) came to 1.1. Moreover, the “AK-based Prestwick library screening result, E. coli (fold increase in extracellular AK activity)” value in assay [4] (planktonic E. coli, positive cutoff 3-fold increase) worked out at 1.2. Further, in assay [5] (planktonic A. baumannii, positive cutoff 3-fold increase), the “AK-based Prestwick library screening result, A. baumannii (fold increase in extracellular AK activity)” value was 0.9. In addition, the “AK-based Prestwick library screening result, E. cloacae (fold increase in extracellular AK activity)” value in assay [6] (planktonic E. cloacae, positive cutoff 3-fold increase) is 2.3. In addition, the “AK-based Prestwick library screening result, S. aureus (fold increase in extracellular AK activity)” value in assay [7] (planktonic S. aureus, positive cutoff 3-fold increase) turned out to be 0.9.
As for `Cc1c(C)c2c(c(C)c1O)CC[C@@](C)(CCC[C@H](C)CCC[C@H](C)CCCC(C)C)O2` [Tocopherol (R,S)], the “AK-based Prestwick Library Screening Results: K. pneumoniae (increase in extracellular AK activity)” value in assay [1] (planktonic K. pneumoniae, 384-well, cutoff for positive-scoring molecules 3-fold increase) is recorded as 0.4. For the same molecule, in assay [2] (planktonic E. faecium, 384-well, cutoff for positive-scoring molecules 3-fold increase), the “AK-based Prestwick Library Screening Results: E. faecium (increase in extracellular AK activity)” value came to 0.9. Besides, the “AK-based Prestwick Library Screening Results: P. aeruginosa (increase in extracellular AK activity)” value in assay [3] (planktonic P. aeruginosa, 384-well, cutoff for positive-scoring molecules 3-fold increase) stood at 0.4. For the same molecule, in assay [4] (planktonic E. coli, 384-well, cutoff for positive-scoring molecules 3-fold increase), the “AK-based Prestwick Library Screening Results: E. coli (increase in extracellular AK activity)” value is 0.6. The “AK-based Prestwick Library Screening Results: A. baumannii (increase in extracellular AK activity)” value in assay [5] (planktonic A. baumannii, 384-well, cutoff for positive-scoring molecules 3-fold increase) is recorded as 0.4. The “AK-based Prestwick Library Screening Results: E. cloacae (increase in extracellular AK activity)” value in assay [6] (planktonic E. cloacae, 384-well, cutoff for positive-scoring molecules 3-fold increase) amounted to 0.4. Besides, the “AK-based Prestwick Library Screening Results: S. aureus (increase in extracellular AK activity)” value in assay [7] (planktonic S. aureus, 384-well, cutoff for positive-scoring molecules 3-fold increase) is 0.4.
